For one data set, the system named is Pythium de Baryanum. The data set can be described thus: In vitro test on mycelian growth (Agar Plate dilution), Pythium. The data set is classed as cell-based. Conditions: 0.25 g/l, 4 days at 20° C. How it is done:
(§1) In vitro Test on Mycelian Growth
(§2) The compounds according to the invention are studied for their effect on the mycelian growth of the following fungi:
(§3) The "Agar Plate dilution" method is used for each test. A mixture of gelose and an acetone solution or a wettable powder containing the material to be tested in a concentration of 0.25 g/l is poured into a Petri dish at a temperature of approximately 50° C.
(§4) The gelose-containing mixture is then allowed to solidify, after which mycelian culture discs of the fungus are placed on it.
(§5) After 4 days at 20° C., the surface area of the inhibition zone observed is evaluated and expressed as a percentage of the inoculated surface area.

In the next data set the test system is Rhizoctonia solani. As to the kind of experiment: In vitro test on mycelian growth (Agar Plate dilution), Rhizoctonia. The data set is classed as cell-based. Conditions: 0.25 g/l, 4 days at 20° C. How it is done: as §1, §2
Rhizoctonia solani, responsible for neck canker
as §3, §4, §5

Data set [1] deals with Plasmopara viticola. The data set can be described thus: In vivo test on vine plants, preventive treatment. The conditions noted are these: 0.5 g/l, leaves sprayed 48 hours before contamination, inspected 9 days after infestation.
Data set [2] relates to Plasmopara viticola. The data set can be described thus: Systemic test by root absorption on vine mildew. The data set is classed as in vivo. The conditions noted are these: 0.5 g/l, absorbed by the roots, assessed after about 9 days.
Data set [3] concerns Plasmopara viticola. The data set can be described thus: In vivo test on vine plants, treatment after contamination. The conditions noted are these: 1 g/l, inspected 9 days after contamination.
A further data set is described as follows: Solubility in water. The data set is classed as physicochemical.
Data set [4] concerns Plasmopara viticola. The data set can be described thus: Open-air test on vine stocks. Conditions: 2 g/l. The format is in vivo. How it is done: Groups of vine stocks (Gamay variety) are treated on the 27th June, 4th, 11th and 18th July, 1st and 7th August, with a spray of wettable powder containing 50% of an active material, namely compound 13 and manganese ethylene-1,2-bis-dithiocarbamate or manebe.
It should be noted that, in August and September, the mildew Plasmopara viticola was extremely virulent on account of heavy rainfall. For a uniform dose of 2 g/l, the results are expressed as percentage protection in relation to a contaminated but untreated control.

For the next data set, the system named is Phytophtora cinnamomi. As to the kind of experiment: Avocado test. The format is in vivo. The conditions noted are these: soil sprayed with 3 g/l solution, after 20 days. An excerpt:
Avocado seedlings (variety Persea indica) are planted in a soil infested with Phytophtora cinnamomi, after which the soil is sprayed with a solution containing 3 g/l of ammonium phosphite. Some seedlings are left untreated as controls. Under these conditions, it is found after 20 days that the roots of the controls are completely dead, whilst 90% of the treated seedlings are healthy.

In another data set the test system is Phytophtora parasitica. The data set can be described thus: Pineapple test. The format is in vivo. Conditions: 0.5 g/l spray 48 hours after contamination, after 30 days. The protocol:
Pineapple seedlings are contaminated with Phytophtora parasitica and then treated after 48 hours by spraying with a solution containing 0.5 g/l of calcium phosphite.

A further data set deals with Botrytis cinerea. As to the kind of experiment: In vitro test on mycelian growth (Agar Plate dilution), Botrytis. The format is cell-based. Conditions: 0.25 g/l, 4 days at 20° C. The protocol:
as §1, §2
Botrytis cinerea, responsible for grey rot
as §3, §4, §5

In a further data set the test system is Piricularia oryzae. The format is cell-based. The conditions noted are these: 0.25 g/l, 4 days at 20° C.
[5] abbreviates: inspection date 2/10 (approx. 2 months after last treatment).
[6] abbreviates: inspection date 3/9 (approx. 1 month after last treatment).
Where [7] appears, read: inspection date 20/10 (approx. 2.5 months after last treatment).

Results on 20 compounds are retold here after patent US4119724A, “Fungicidal compositions containing phosphorous acid and derivatives thereof” (Pepro, priority 1973, dated 1978).

As for `NCCO.O=[PH](O)O` [Compound 8, acid monoethanolamine phosphite], the “inhibition of mycelian growth (inhibition zone as percentage of the inoculated surface area)” value in the data set with Pythium de Baryanum is reported as 51%; in the data set with Rhizoctonia solani it was 60%.

Regarding `O=[PH]([O-])[O-].[Ca+2]` [Compound 10, neutral calcium phosphite], the “protection (preventive treatment)” value in the data set on Plasmopara viticola [1] is listed as “total protection”. Besides, in the data set with Plasmopara viticola [2], the “protection by root absorption (systemic)” value is listed as “good protection”.

Consider `O=[PH]([O-])[O-].[Ba+2]` [Compound 12, neutral barium phosphite], for which the “protection (preventive treatment)” value in the data set with Plasmopara viticola [1] is “total protection”. For the same compound, the “protection by root absorption (systemic)” value in the data set on Plasmopara viticola [2] is “total protection”.

With `O=[PH]([O-])[O-].[Zn+2]` [Compound 17, neutral zinc(II)phosphite], in the data set with Plasmopara viticola [1], the “protection (preventive treatment)” value is given as “total protection”. For the same compound, in the data set on Plasmopara viticola [2], the “protection by root absorption (systemic)” value was “total protection”. In addition, the “stop of the development of mildew (treatment after contamination)” value (shortened to “stop of the development of mildew”) in the data set on Plasmopara viticola [3] is on record as “completely stop the development of mildew”.

In the case of `O=[PH]([O-])[O-].[Mg+2]` [Compound 18, neutral magnesium phosphite], the “protection (preventive treatment)” value in the data set with Plasmopara viticola [1] is “good protection”.

Turning to `O=[PH]([O-])[O-].O=[PH]([O-])[O-].O=[PH]([O-])[O-].[Al+3].[Al+3]` [Compound 19, neutral aluminium phosphite], the “protection (preventive treatment)” value in the data set on Plasmopara viticola [1] was “total protection”. Further, in the data set on Plasmopara viticola [2], the “protection by root absorption (systemic)” value is listed as “total protection”.

As for `O=[PH](O)O.c1c[nH]cn1` [Compound 21, acid phosphite of 1,3-imidazole], the “protection (preventive treatment)” value with Plasmopara viticola [1] was “good protection”. Besides, in the data set on Plasmopara viticola [2], the “protection by root absorption (systemic)” value is listed as “total protection”. For the same compound, the “stop of the development of mildew” value in the data set on Plasmopara viticola [3] was “completely stop the development of mildew”.

For the compound `Nc1ccccc1` [Compound 22], in the data set “Solubility in water”, the solubility in water entry is “insoluble”. For the same compound, the “protection (preventive treatment)” value in the data set with Plasmopara viticola [1] was “good protection”. Further, in the data set on Plasmopara viticola [2], the “protection by root absorption (systemic)” value is listed as “total protection”. Also, the “stop of the development of mildew” value in the data set on Plasmopara viticola [3] is “completely stop the development of mildew”.

`NC1CCCCC1` [Compound 23]: the solubility in water result in the data set “Solubility in water” is listed as “insoluble”. In addition, the “protection by root absorption (systemic)” value in the data set on Plasmopara viticola [2] is “good protection”.

Turning to `C1COCCN1` [Compound 25], in the data set “Solubility in water”, the solubility in water result is reported as “insoluble”. In addition, the “protection (preventive treatment)” value in the data set with Plasmopara viticola [1] is given as “good protection”. Besides, the “protection by root absorption (systemic)” value in the data set on Plasmopara viticola [2] is “total protection”. Also, the “stop of the development of mildew” value in the data set on Plasmopara viticola [3] is given as “completely stop the development of mildew”.

As to `CC(C)c1ccc(N)cc1` [Compound 26], the solubility in water result in the data set “Solubility in water” is given as “insoluble”. In the data set with Plasmopara viticola [1], the “protection (preventive treatment)” value was “good protection”. The “stop of the development of mildew” value in the data set with Plasmopara viticola [3] is “completely stop the development of mildew”.

In the case of `CC(C)c1cccc(N)c1` [Compound 27], the solubility in water entry in “Solubility in water” was “insoluble”. The “protection (preventive treatment)” value in the data set with Plasmopara viticola [1] is reported as “good protection”.

As for `S=C([S-])NCCNC(=S)[S-].[Mn+2]` [Manebe, manganese ethylene-1,2-bis-dithiocarbamate, reference compound], the “percentage protection in relation to contaminated untreated control” value with Plasmopara viticola [4] (setting [5]) stood at 62%; in the data set on Plasmopara viticola [4] (setting [6]), 96%; in the data set on Plasmopara viticola [4] (setting [7]) it was 15%.

In the data set with Phytophtora cinnamomi, `N.N.O.O=[P+](O)O` [ammonium phosphite] returned a treated seedlings healthy of 90%.

Take calcium phosphite: the “inhibition of the fungus in treated seedlings” value in the data set on Phytophtora parasitica is “completely inhibited”.

Consider cuprous phosphite [Compound 20], for which, in the data set with Plasmopara viticola [1], the “protection (preventive treatment)” value was “total protection”.

Consider manganous phosphite [Compound 16], for which the “protection (preventive treatment)” value in the data set with Plasmopara viticola [1] is on record as “total protection”. For the same compound, the “stop of the development of mildew” value in the data set with Plasmopara viticola [3] is reported as “completely stop the development of mildew”.

Turning to “neutral copper(II)phosphite [Compound 13]”, the “percentage protection in relation to contaminated untreated control” value is given as 66% in the data set with Plasmopara viticola [4] (setting [5]), 94% in the data set on Plasmopara viticola [4] (setting [6]) and 50% with Plasmopara viticola [4] (setting [7]). Besides, the “protection (preventive treatment)” value with Plasmopara viticola [1] is reported as “total protection”. Besides, in the data set on Plasmopara viticola [2], the “protection by root absorption (systemic)” value is listed as “good protection”.

For the compound “neutral nickel (II)phosphite [Compound 14]”, the entries for the “inhibition of mycelian growth (inhibition zone as percentage of the inoculated surface area)” value in the data set with Botrytis cinerea, in the data set with Rhizoctonia solani and in the data set with Piricularia oryzae were 48%, 78% and 59%, respectively. Further, in the data set with Plasmopara viticola [1], the “protection (preventive treatment)” value is given as “total protection”. Also, the “stop of the development of mildew” value in the data set with Plasmopara viticola [3] is “completely stop the development of mildew”.

As to trivalent iron phosphite [Compound 15], the “protection (preventive treatment)” value in the data set with Plasmopara viticola [1] is “good protection”.
